In EP4737454A1, “GLP-1 RECEPTOR AGONIST, AND PREPARATION METHOD THEREFOR AND USE THEREOF” (Wayne Biotechnology Co., Ltd., priority 2023, dated 2025):
pEC50: −log10 of the molar value.

Columns and labels:
Human GLP-1R = Human GLP-1R (Homo sapiens, UniProt P43220); experiment: cAMP level determination in human GLP-1R stably transfected HEK293T cells (HTRF cAMP kit); type: cell-based; conditions: 37°C 30 min
Experimental: Human GLP-1R HEK293T stably transfected cells were digested with trypsin, terminated with DMEM total (without p/s), centrifuged and washed twice with 1X Stimulation buffer, then resuspended in 1X stimulation buffer and counted. The cells were then prepared as a 1 Million/mL cell suspension in stimulation buffer. Compound powder was first prepared as a 10 mM stock solution in DMSO, then diluted to 2 mM with DMSO, and further prepared as 2X compound in 1X stimulation buffer (Cisbio kit buffer with freshly added IBMX at a final concentration of 0.5 mM). The top dose final concentration was 2000 nM, with a final DMSO concentration of 0.2%, diluted in a 1:3 gradient for 11 gradients.
According to the layout, 5 µl of compound was added to each well; Min wells contained 100 nM GLP-1, and Max wells contained 0.2% DMSO in 1X stimulation buffer. 5 µl of cell suspension was added to each well, centrifuged at 300 rpm at room temperature for 1 min, then incubated at 37°C for 30 min. 2X cAMP standards were prepared in 1X Stimulation buffer, with a top final concentration of 2.8 µM, diluted in a 1:3 gradient for 12 doses. According to the layout, 10 µl was added to each well. Finally, d2 and antibody were diluted 20-fold in 1X Detection buffer (Cisbio kit buffer), and 5 µl of each was added to each well according to the layout. After centrifugation at 300 rpm at room temperature for 1 min, the plate was incubated at room temperature for 2 hr.
Stimulation% was calculated based on Min and Max readings (665nm/615nm ratio) using the formula: 100*(ratio Max well - ratio test well)/(ratio Max well - ratio Min well). The cAMP concentration in each test well was derived from the cAMP standard curve, and the data was analyzed using GraphPad Prism 9 to plot four-parameter fit curves and calculate EC50 values using the formula: Y=Bottom + (Top-Bottom)/(1+10^((LogEC50-X)*HillSlope)). Table 1: cAMP Level Determination in Human GLP-1R Stably Transfected HEK293T Cells

[1] = Pharmacokinetic analysis of compounds in mouse plasma after oral gavage or intravenous injection; type: in vivo, Male C57BL/6J mice; conditions: for AUC(0-t) at 24 h / Cmax / Tmax / half-life / clearance: mouse plasma; for AUC(0-t) at 24 h / Cmax / Tmax: dose 5 mg/kg single oral gavage; for half-life: table dose 5 mg/kg (oral gavage); for clearance: table dose 5 mg/kg, IV arm was 1 mg/kg; for F: mouse, PO 5 mg/kg versus IV 1 mg/kg
Experimental: Male C57BL/6J mice, approximately 30 g, 6-9 weeks old, gavage oral administration and intravenous injection: 3 mice per compound, animals from Shanghai Medicilon Inc.
The pharmacokinetic characteristics of the compounds were tested in mice after oral gavage (PO) or intravenous injection (IV) using a standard protocol. The test compounds were prepared as clear solutions with the vehicle: 10% (v/v) DMSO + 10% (v/v) Solutol + 80% (v/v) Saline. Three mice were administered a single oral gavage dose of 5 mg/kg, and blood samples were collected at 0.25, 0.5, 1, 2, 4, 6, 8, and 24 hours post-dose via submandibular vein or other appropriate methods. Each sample collected was approximately 0.03 mL, anticoagulated with sodium heparin, and placed on ice after collection. Additionally, three mice were administered a single intravenous injection of 1 mg/kg of the test compound, and blood samples were collected at 0.083, 0.25, 0.5, 1, 2, 4, 8, and 24 hours post-dose via submandibular vein or other appropriate methods. Each sample collected was approximately 0.03 mL, anticoagulated with sodium heparin, and placed on ice after collection. Plasma was separated by centrifugation within 1 hour (centrifugation conditions: 6800g, 6 minutes, 2-8°C), and the concentration of the compounds of the present invention was analyzed by LC-MS/MS method.
Prior to analysis, all samples were stored at -80°C, and pharmacokinetic parameters were calculated using Phoenix WinNonlin. Table 2: Pharmacokinetic Parameters

Sequence of Human GLP-1R (P43220 24-463): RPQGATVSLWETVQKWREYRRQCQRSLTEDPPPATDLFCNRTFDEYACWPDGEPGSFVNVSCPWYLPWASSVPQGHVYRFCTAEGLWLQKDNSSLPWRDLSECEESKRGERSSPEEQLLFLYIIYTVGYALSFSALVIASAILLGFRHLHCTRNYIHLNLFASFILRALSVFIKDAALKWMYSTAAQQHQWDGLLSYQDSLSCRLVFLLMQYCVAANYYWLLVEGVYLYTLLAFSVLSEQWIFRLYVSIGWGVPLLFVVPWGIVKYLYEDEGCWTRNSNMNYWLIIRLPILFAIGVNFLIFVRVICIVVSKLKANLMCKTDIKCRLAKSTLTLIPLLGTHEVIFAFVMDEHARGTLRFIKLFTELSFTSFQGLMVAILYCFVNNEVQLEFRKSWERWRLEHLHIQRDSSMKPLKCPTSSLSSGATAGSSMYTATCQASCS

Row | SMILES | pEC50 (Human GLP-1R) | other results
1 | Cc1cc(-n2nc3c(c2-n2ccn(-c4ccc(C(=O)N(C)C5CC5)c(Cl)c4)c2=O)[C@H](C)N(C(=O)c2cc4cc([C@H]5CCOC(C)(C)C5)ccc4n2[C@@]2(c4nc(=O)o[nH]4)C[C@@H]2C)CC3)cc(C)c1F [Compound 11] | 8.30 | AUC(0-t) at 24 h [1]: 35200 ng·h/mL; Cmax [1]: 3170 ng/mL; Tmax [1]: 3 h; half-life [1]: 4.27 h; clearance [1]: 2.02 mL/min/kg; F [1]: 87.27%
2 | Cc1cc(-n2nc3c(c2-n2ccn(-c4ccc(C(=O)N(C)C5CC5)c(Cl)c4F)c2=O)[C@H](C)N(C(=O)c2cc4cc([C@H]5CCOC(C)(C)C5)ccc4n2[C@@]2(c4nc(=O)o[nH]4)C[C@@H]2C)CC3)cc(C)c1F [Compound 7] | 8.21 | AUC(0-t) at 24 h [1]: 34700 ng·h/mL; Cmax [1]: 3120 ng/mL; Tmax [1]: 1.33 h; half-life [1]: 3.41 h; clearance [1]: 1.94 mL/min/kg; F [1]: 81.76%
3 | Cc1cc(-n2nc3c(c2-n2ccn(-c4cccc(C#N)c4)c2=O)[C@H](C)N(C(=O)c2cc4cc(C5CCOC(C)(C)C5)ccc4n2[C@@]2(c4nc(=O)o[nH]4)C[C@@H]2C)CC3)cc(C)c1F (stereo partly shown) [Compound 80] | 7.94 | 
4 | Cc1cc(-n2nc3c(c2-n2ccn(-c4ccc(N(C)C5CC5)c(F)c4)c2=O)[C@H](C)N(C(=O)c2cc4cc(C5CCOC(C)(C)C5)ccc4n2[C@@]2(c4noc(=O)[nH]4)C[C@@H]2C)CC3)cc(C)c1F (stereo partly shown) [Compound 68] | 7.75 | 
5 | Cc1cc(-n2nc3c(c2-n2ccn(-c4cccc(C(=O)NC5CC5)c4)c2=O)[C@H](C)N(C(=O)c2cc4cc(C5CCOC(C)(C)C5)ccc4n2[C@@]2(c4nc(=O)o[nH]4)C[C@@H]2C)CC3)cc(C)c1F (stereo partly shown) [Compound 47] | 7.19 | 
6 | Cc1cc(-n2nc3c(c2-n2ccn(-c4ccc(C#N)c(F)c4F)c2=O)[C@H](C)N(C(=O)c2cc4cc(C5CCOC(C)(C)C5)ccc4n2[C@@]2(c4nc(=O)o[nH]4)C[C@@H]2C)CC3)cc(C)c1F (stereo partly shown) [Compound 93] | 7.82 | 
7 | Cc1cc(-n2nc3c(c2-n2ccn(-c4ccc(C(=O)N(C)C5CC5)c(OC(F)(F)F)c4)c2=O)[C@H](C)N(C(=O)c2cc4cc([C@H]5CCOC(C)(C)C5)ccc4n2[C@@]2(c4nc(=O)o[nH]4)C[C@@H]2C)CC3)cc(C)c1F [Compound 12] | 8.02 | 
8 | Cc1cc(-n2nc3c(c2-n2ccn(-c4c(F)cccc4C(=O)N(C)C4CC4)c2=O)[C@H](C)N(C(=O)c2cc4cc(C5CCOC(C)(C)C5)ccc4n2[C@@]2(c4nc(=O)o[nH]4)C[C@@H]2C)CC3)cc(C)c1F (stereo partly shown) [Compound 40] | 6.81 | 
9 | Cc1cc(-n2nc3c(c2-n2ccn(-c4ccc(C(=O)N(C)C5CC5)c(C(F)(F)F)c4)c2=O)[C@H](C)N(C(=O)c2cc4cc([C@H]5CCOC(C)(C)C5)ccc4n2[C@@]2(c4nc(=O)o[nH]4)C[C@@H]2C)CC3)cc(C)c1F [Compound 6] | 8.29 | 
10 | Cc1cc(-n2nc3c(c2-n2ccn(-c4ccc(N(C)C(=O)C5(C(F)(F)F)CC5)cc4)c2=O)[C@H](C)N(C(=O)c2cc4cc(C5CCOC(C)(C)C5)ccc4n2[C@@]2(c4noc(=O)[nH]4)C[C@@H]2C)CC3)cc(C)c1F (stereo partly shown) [Compound 69] | 7.99 | 
11 | Cc1cc(-n2nc3c(c2-n2ccn(-c4ccc(C(=O)NC5CC5)cc4)c2=O)[C@H](C)N(C(=O)c2cc4cc(C5CCOC(C)(C)C5)ccc4n2[C@@]2(c4nc(=O)o[nH]4)C[C@@H]2C)CC3)cc(C)c1F (stereo partly shown) [Compound 46] | 7.11 | 
12 | Cc1cc(-n2nc3c(c2-n2ccn(-c4ccc(C#N)cn4)c2=O)[C@H](C)N(C(=O)c2cc4cc(C5CCOC(C)(C)C5)ccc4n2[C@@]2(c4nc(=O)o[nH]4)C[C@@H]2C)CC3)cc(C)c1F (stereo partly shown) [Compound 85] | 7.30 | 
13 | Cc1cc(-n2nc3c(c2-n2ccn(-c4cnc(C(=O)N(C)C5CC5)nc4)c2=O)[C@H](C)N(C(=O)c2cc4cc(C5CCOC(C)(C)C5)ccc4n2[C@@]2(c4nc(=O)o[nH]4)C[C@@H]2C)CC3)cc(C)c1F (stereo partly shown) [Compound 32] | 7.10 | 
14 | Cc1cc(-n2nc3c(c2-n2ccn(-c4ccc5c(c4)S(=O)(=O)CC5)c2=O)[C@H](C)N(C(=O)c2cc4cc(C5CCOC(C)(C)C5)ccc4n2[C@@]2(c4nc(=O)o[nH]4)C[C@@H]2C)CC3)cc(C)c1F (stereo partly shown) [Compound 57] | 7.80 | 
15 | Cc1cc(-n2nc3c(c2-n2ccn(-c4ccc(N(C)C5CC5)cc4C(F)(F)F)c2=O)[C@H](C)N(C(=O)c2cc4cc(C5CCOC(C)(C)C5)ccc4n2[C@@]2(c4nc(=O)o[nH]4)C[C@@H]2C)CC3)cc(C)c1F (stereo partly shown) [Compound 65] | 6.19 | 
16 | Cc1cc(-n2nc3c(c2-n2ccn(-c4ccc(C(=O)N(C)C5CC5)nn4)c2=O)[C@H](C)N(C(=O)c2cc4cc(C5CCOC(C)(C)C5)ccc4n2[C@@]2(c4nc(=O)o[nH]4)C[C@@H]2C)CC3)cc(C)c1F (stereo partly shown) [Compound 30] | 6.69 | 
17 | Cc1cc(-n2nc3c(c2-n2ccn(-c4ccc(N(C)C(=O)C5CCC5)c(F)c4)c2=O)[C@H](C)N(C(=O)c2cc4cc([C@H]5CCOC(C)(C)C5)ccc4n2[C@@]2(c4nc(=O)o[nH]4)C[C@@H]2C)CC3)cc(C)c1F [Compound 72] | 8.01 | 
18 | Cc1cc(-n2nc3c(c2-n2ccn(-c4ccc(C#N)c(C)c4F)c2=O)[C@H](C)N(C(=O)c2cc4cc(C5CCOC(C)(C)C5)ccc4n2[C@@]2(c4nc(=O)o[nH]4)C[C@@H]2C)CC3)cc(C)c1F (stereo partly shown) [Compound 96] | 8.13 | 
19 | Cc1cc(-n2nc3c(c2-n2ccn(-c4ccccc4C(=O)N(C)C4CC4)c2=O)[C@H](C)N(C(=O)c2cc4cc(C5CCOC(C)(C)C5)ccc4n2[C@@]2(c4nc(=O)o[nH]4)C[C@@H]2C)CC3)cc(C)c1F (stereo partly shown) [Compound 39] | 7.95 | 
20 | Cc1cc(-n2nc3c(c2-n2ccn(-c4cc(F)cc(C#N)c4)c2=O)[C@H](C)N(C(=O)c2cc4cc(C5CCOC(C)(C)C5)ccc4n2[C@@]2(c4nc(=O)o[nH]4)C[C@@H]2C)CC3)cc(C)c1F (stereo partly shown) [Compound 92] | 7.36 | 
21 | Cc1cc(-n2nc3c(c2-n2ccn(-c4ccc(C(=O)N5CCC5)c(F)c4)c2=O)[C@H](C)N(C(=O)c2cc4cc(C5CCOC(C)(C)C5)ccc4n2[C@@]2(c4nc(=O)o[nH]4)C[C@@H]2C)CC3)cc(C)c1F (stereo partly shown) [Compound 53] | 7.59 | 
22 | Cc1cc(-n2nc3c(c2-n2ccn(-c4ccc(C(=O)N(C)C5CC5)cn4)c2=O)[C@H](C)N(C(=O)c2cc4cc(C5CCOC(C)(C)C5)ccc4n2[C@@]2(c4nc(=O)o[nH]4)C[C@@H]2C)CC3)cc(C)c1F (stereo partly shown) [Compound 29] | 6.99 | 
23 | Cc1cc(-n2nc3c(c2-n2ccn(-c4cc(F)c(C(=O)N(C)C5CC5)cc4F)c2=O)C(C)N(C(=O)c2cc4cc(C5CCOC(C)(C)C5)ccc4n2C2(c4nc(=O)o[nH]4)CC2C)CC3)cc(C)c1F (stereo not shown) [Compound 26] | 7.94 | 
24 | Cc1cc(-n2nc3c(c2-n2ccn(-c4ccc(C(=O)N(C)C5(C(F)(F)F)CC5)cc4)c2=O)[C@H](C)N(C(=O)c2cc4cc(C5CCOC(C)(C)C5)ccc4n2[C@@]2(c4nc(=O)o[nH]4)C[C@@H]2C)CC3)cc(C)c1F (stereo partly shown) [Compound 16] | 8.00 | 
25 | Cc1cc(-n2nc3c(c2-n2ccn(-c4cccc(C(=O)N(C)C5CC5)c4)c2=O)[C@H](C)N(C(=O)c2cc4cc(C5CCOC(C)(C)C5)ccc4n2[C@@]2(c4nc(=O)o[nH]4)C[C@@H]2C)CC3)cc(C)c1F (stereo partly shown) [Compound 45] | 7.39 | 
26 | Cc1cc(-n2nc3c(c2-n2ccn(-c4ccc(OC(F)(F)F)c(C(=O)N(C)C5CC5)c4)c2=O)[C@H](C)N(C(=O)c2cc4cc(C5CCOC(C)(C)C5)ccc4n2[C@@]2(c4nc(=O)o[nH]4)C[C@@H]2C)CC3)cc(C)c1F (stereo partly shown) [Compound 38] | 7.74 | 
27 | Cc1cc(-n2nc3c(c2-n2ccn(-c4cc(F)c(C(=O)N(C)C5CC5)c(Cl)c4F)c2=O)[C@H](C)N(C(=O)c2cc4cc(C5CCOC(C)(C)C5)ccc4n2[C@@]2(c4nc(=O)o[nH]4)C[C@@H]2C)CC3)cc(C)c1F (stereo partly shown) [Compound 19] | 7.79 | 
28 | Cc1cc(-n2nc3c(c2-n2ccn(-c4ccc(N(C)C(=O)C5CC5)c(F)c4)c2=O)[C@H](C)N(C(=O)c2cc4cc(C5CCOC(C)(C)C5)ccc4n2[C@@]2(c4noc(=O)[nH]4)C[C@@H]2C)CC3)cc(C)c1F (stereo partly shown) [Compound 63] | 8.06 | 
